Experimental data published in PMC5609601 (Brazilian Journal of Medical and Biological Research, 2017).
Entries after “also recorded” stand apart in the source; their conditions may differ. Read-outs that look alike come from different tables or passages of the source.

Columns and labels:
[1] = Stability of curcumin constituents; type: physicochemical, rat; conditions: for Concentration in blank intestinal perfusion fluid: 37.5±0.5°C, drug-containing SEDDS; for Stability in pH 6.8 K-R blank intestinal perfusion fluid: within 8 h, curcumin SEDDS
rat small intestines [2] = assay: In situ single pass intestinal perfusion: absorption site and drug concentration; type: in vivo; conditions: for Comparison of absorption among intestinal segments / Concentration dependence of absorption: duodenum; for Comparison of absorption among intestinal segments: jejunum, ileum, colon; for Comparison of absorption among intestinal segments / Main intestinal absorption site: higher concentration group; for Concentration dependence of absorption: low, medium, high, higher concentrations; for Main intestinal absorption site: different intestinal segments; for Transport (absorption) mechanism: rat small intestine
rat small intestines [3] = type: in vivo; conditions: duodenum; for Influence of 2,4-dinitrophenol on Ka / Influence of 2,4-dinitrophenol on Papp / Influence of 2,4-dinitrophenol on A%: compared with the group without inhibitor; for Influence of 2,4-dinitrophenol on A%: 1.0, 2.0, 5.0 mmol/L
[4] = Adsorption of the constituents by the intestinal wall; type: in vitro ADME, rat; conditions: for Absorption in the intestinal wall: curcumin SEDDS; for Concentration in incubation solution with intestinal wall: 37.5±0.5°C
MRP2 = MRP2 (Rattus norvegicus, UniProt Q63120); type: in vivo; conditions: for Substrate of MRP2: inferred from probenecid effect
MRP2, sequence (Q63120 whole entry): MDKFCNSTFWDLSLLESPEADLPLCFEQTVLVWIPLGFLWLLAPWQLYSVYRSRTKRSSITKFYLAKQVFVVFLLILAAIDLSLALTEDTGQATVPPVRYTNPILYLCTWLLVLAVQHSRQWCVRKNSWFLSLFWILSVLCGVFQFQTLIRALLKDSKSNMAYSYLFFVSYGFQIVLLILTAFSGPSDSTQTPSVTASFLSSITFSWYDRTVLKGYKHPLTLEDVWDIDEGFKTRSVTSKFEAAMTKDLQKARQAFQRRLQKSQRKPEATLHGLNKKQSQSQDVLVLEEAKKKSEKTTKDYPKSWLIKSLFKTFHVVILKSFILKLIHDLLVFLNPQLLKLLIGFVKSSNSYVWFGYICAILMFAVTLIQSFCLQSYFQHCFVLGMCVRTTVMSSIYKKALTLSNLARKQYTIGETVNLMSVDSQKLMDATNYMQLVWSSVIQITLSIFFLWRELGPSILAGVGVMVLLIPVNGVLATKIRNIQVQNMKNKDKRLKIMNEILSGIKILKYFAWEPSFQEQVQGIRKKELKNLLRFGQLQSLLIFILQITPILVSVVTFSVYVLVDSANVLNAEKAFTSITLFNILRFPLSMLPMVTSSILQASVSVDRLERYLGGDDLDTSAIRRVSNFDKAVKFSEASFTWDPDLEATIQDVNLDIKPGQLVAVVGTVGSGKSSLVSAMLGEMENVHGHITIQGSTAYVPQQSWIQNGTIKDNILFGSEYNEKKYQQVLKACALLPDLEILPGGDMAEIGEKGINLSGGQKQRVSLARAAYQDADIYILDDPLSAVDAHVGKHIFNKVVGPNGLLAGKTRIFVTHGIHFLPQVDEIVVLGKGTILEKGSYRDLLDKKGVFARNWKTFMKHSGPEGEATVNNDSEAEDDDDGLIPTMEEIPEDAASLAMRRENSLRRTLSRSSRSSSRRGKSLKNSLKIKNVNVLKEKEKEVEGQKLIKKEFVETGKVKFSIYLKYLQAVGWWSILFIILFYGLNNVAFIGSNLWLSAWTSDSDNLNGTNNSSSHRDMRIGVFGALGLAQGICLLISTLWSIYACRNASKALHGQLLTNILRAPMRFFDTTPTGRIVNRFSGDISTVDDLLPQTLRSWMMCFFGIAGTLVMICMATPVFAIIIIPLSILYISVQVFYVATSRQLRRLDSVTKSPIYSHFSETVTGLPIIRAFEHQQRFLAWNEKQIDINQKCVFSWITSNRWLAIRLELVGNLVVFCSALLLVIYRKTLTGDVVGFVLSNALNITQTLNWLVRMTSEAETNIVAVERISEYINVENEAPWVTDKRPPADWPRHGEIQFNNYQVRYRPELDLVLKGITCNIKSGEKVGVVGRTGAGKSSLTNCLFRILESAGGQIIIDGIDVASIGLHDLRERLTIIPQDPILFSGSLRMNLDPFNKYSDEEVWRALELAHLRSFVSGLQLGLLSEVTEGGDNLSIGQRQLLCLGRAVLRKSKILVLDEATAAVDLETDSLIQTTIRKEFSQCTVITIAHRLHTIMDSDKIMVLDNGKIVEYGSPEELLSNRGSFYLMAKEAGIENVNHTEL

P-gp = type: in vivo, rat; conditions: for Influence of verapamil hydrochloride on absorption / Influence of verapamil hydrochloride on Ka / Influence of verapamil hydrochloride on Papp / Influence of verapamil hydrochloride on A%: ileum; for Influence of verapamil hydrochloride on Ka / Influence of verapamil hydrochloride on Papp: high-concentration inhibitor; for Substrate of P-glycoprotein: inferred from verapamil hydrochloride effect
[5] = jejunum, high-concentration probenecid
[6] = jejunum, probenecid 0.02, 0.04, 0.08 mmol/L

Row | SMILES | Concentration in blank intestinal perfusion fluid ([1]; time 0 h) | Concentration in blank intestinal perfusion fluid ([1]; time 1 h) | Concentration in blank intestinal perfusion fluid ([1]; time 2 h) | Concentration in blank intestinal perfusion fluid ([1]; time 4 h) | Concentration in blank intestinal perfusion fluid ([1]; time 8 h) | Stability in pH 6.8 K-R blank intestinal perfusion fluid [1] | Comparison of absorption among intestinal segments (rat small intestines [2]) | Concentration dependence of absorption (rat small intestines [2]) | Main intestinal absorption site (rat small intestines [2]) | Absorption in duodenum compared to colon (rat small intestines [2]; one-way ANOVA) | Transport (absorption) mechanism (rat small intestines [2]) | Energy dependence of intestinal absorption process (rat small intestines [3]) | Influence of 2,4-dinitrophenol on Ka (rat small intestines [3]) | Concentration in incubation solution with intestinal wall ([4]; time 0 min) | Concentration in incubation solution with intestinal wall ([4]; time 30 min) | Concentration in incubation solution with intestinal wall ([4]; time 60 min) | Concentration in incubation solution with intestinal wall ([4]; time 90 min) | Concentration in incubation solution with intestinal wall ([4]; time 120 min) | Influence of probenecid on Papp (MRP2; [5]) | Influence of verapamil hydrochloride on Papp (P-gp) | other results
1 | COc1cc(/C=C/C(O)=C/C(=O)/C=C/c2ccc(O)cc2)ccc1O [DMCur, demethoxycurcumin] | 159 µg/mL | 158 µg/mL | 157 µg/mL | 156 µg/mL | 154 µg/mL | stable | duodenum > colon ≈ jejunum > ileum; also recorded: better in the duodenum and relatively poorer in the ileum | saturation phenomenon | duodenum | increased significantly (P<0.05) | active transport in the carrier-mediated transport | energy-dependent action | decreased significantly (P<0.05) | 166.950 µg/mL | 165.354 µg/mL | 164.023 µg/mL | 163.724 µg/mL | 162.104 µg/mL | significantly increased | significantly accelerated | Absorption in duodenum compared with ileum (rat small intestines [2]; one-way ANOVA): increased (P<0.01) in an extremely significant manner; Absorption in jejunum compared with ileum (rat small intestines [2]; one-way ANOVA): increased significantly (P<0.05); Influence of 2,4-dinitrophenol on Papp (rat small intestines [3]): decreased significantly (P<0.05); Influence of 2,4-dinitrophenol on A% (rat small intestines [3]): decreased in an extremely significant manner (P<0.01); Absorption in the intestinal wall [4]: no obvious absorption; Substrate of MRP2 (MRP2): may be the substrates; Change of A% with probenecid concentration (MRP2; jejunum): increased with the increase in probenecid concentration; Change of Ka with probenecid concentration (MRP2; jejunum): increased with the increase in probenecid concentration; Influence of probenecid on A% (MRP2; [6]): significantly increased; Influence of verapamil hydrochloride on absorption (P-gp): significantly improve the absorption; Influence of verapamil hydrochloride on Ka (P-gp): significantly accelerated; Influence of verapamil hydrochloride on A% (P-gp; medium-concentration and high-concentration inhibitor): significant increase; Substrate of P-glycoprotein (P-gp): may be the substrates
2 | O=C(/C=C/c1ccc(O)cc1)CC(=O)/C=C/c1ccc(O)cc1 [BDMCur, bisdemethoxycurcumin] | 26 µg/mL | 26 µg/mL | 26 µg/mL | 26 µg/mL | 25 µg/mL | stable | not significantly different (P>0.05); also recorded: better in the duodenum and relatively poorer in the ileum | concentration inhibiting effect | duodenum | increased (P<0.01) in an extremely significant manner | active transport in the carrier-mediated transport | energy-dependent action | decreased significantly (P<0.05) | 27.300 µg/mL | 27.288 µg/mL | 27.247 µg/mL | 27.173 µg/mL | 26.253 µg/mL | significantly increased | significantly accelerated | Influence of 2,4-dinitrophenol on Papp (rat small intestines [3]): decreased significantly (P<0.05); Influence of 2,4-dinitrophenol on A% (rat small intestines [3]): decreased in an extremely significant manner (P<0.01); Absorption in the intestinal wall [4]: no obvious absorption; Substrate of MRP2 (MRP2): may be the substrates; Change of A% when probenecid concentration was further increased (MRP2; jejunum, above medium concentration): barely changed; Influence of probenecid on Ka (MRP2; [5]): significantly increased; Influence of probenecid on A% (MRP2; jejunum, medium-concentration probenecid): significantly increased; Influence of probenecid on A% (MRP2; [6]): significantly increased; Influence of verapamil hydrochloride on absorption (P-gp): significantly improve the absorption; Influence of verapamil hydrochloride on Ka (P-gp): significantly accelerated; Influence of verapamil hydrochloride on A% (P-gp; verapamil hydrochloride 0.05, 0.1, 0.5 mmol/L): almost no influence; Substrate of P-glycoprotein (P-gp): may be the substrates
3 | COc1cc(/C=C/C(=O)CC(=O)/C=C/c2ccc(O)c(OC)c2)ccc1O [Cur, curcumin] | 685 µg/mL | 684 µg/mL | 682 µg/mL | 678 µg/mL | 668 µg/mL | stable | – | concentration inhibiting effect | – | – | – | – | – | 719.250 µg/mL | 717.346 µg/mL | 716.858 µg/mL | 716.019 µg/mL | 701.751 µg/mL | significantly increased | significantly accelerated | Change of A% with probenecid concentration (MRP2; jejunum): increased with the increase in probenecid concentration; Change of Ka with probenecid concentration (MRP2; jejunum): increased with the increase in probenecid concentration
